Values belong to the compound of their own block, whether it stands above or below them.
Columns and labels:
[1] = target: GSPT1 (Homo sapiens, UniProt P15170); assay: Label-free proteomics in TMD8 cells: GSPT1; type: cell-based; details: 111 nM, 6 h
[2] = tested on: IKZF1 and IKZF3; assay: Label-free proteomics in TMD8 cells: neo-substrates IKZF1/3; type: cell-based, human; details: 111 nM, 6 h
[3] = tested on: CSK, SYK, FRK, HCK, LYN, BAZ1B, TYK2, and Fes/Fps; assay: Label-free proteomics in TMD8 cells: other kinases; type: cell-based, human; details: 111 nM, 6 h
[4] = tested on: Mino cells; assay: Cell viability, CellTiter-Glo 2.0, Mino cells; type: cell-based; details: read-out: Mino Cells IC50, 48 h (Figure 6) or 72 h (method)
[5] = tested on: TMD8 cells; assay: Cell viability, CellTiter-Glo 2.0, TMD8 cells; type: cell-based; details: read-out: TMD8 Cells IC50, 48 h
[6] = tested on: TMD8 cells; assay: Apoptosis by Annexin-V/PI flow cytometry, TMD8 cells; type: cell-based; details: 48 h; for Induction of apoptosis: TMD8 cells, 3000 nM to 0.15 nM
[7] = tested on: BCR signaling pathway; assay: BCR signaling pathway western blots in TMD8 and Mino cells; type: cell-based; details: 48 h, stimulated with anti-human IgM
[8] = tested on: Mino cells; assay: Apoptosis by Annexin-V/PI flow cytometry, Mino cells; type: cell-based; details: 48 h, 3000 nM to 0.15 nM
[9] = target: T1, BTK (Homo sapiens, UniProt Q06187); assay: BTK degradation in Ramos cells by western blot; type: cell-based; details: for BTK degradation by parent molecules: GDC-0853 and/or pomalidomide, 3000 nM to 0.15 nM, Figure S2
T1 sequence (Q06187 whole entry): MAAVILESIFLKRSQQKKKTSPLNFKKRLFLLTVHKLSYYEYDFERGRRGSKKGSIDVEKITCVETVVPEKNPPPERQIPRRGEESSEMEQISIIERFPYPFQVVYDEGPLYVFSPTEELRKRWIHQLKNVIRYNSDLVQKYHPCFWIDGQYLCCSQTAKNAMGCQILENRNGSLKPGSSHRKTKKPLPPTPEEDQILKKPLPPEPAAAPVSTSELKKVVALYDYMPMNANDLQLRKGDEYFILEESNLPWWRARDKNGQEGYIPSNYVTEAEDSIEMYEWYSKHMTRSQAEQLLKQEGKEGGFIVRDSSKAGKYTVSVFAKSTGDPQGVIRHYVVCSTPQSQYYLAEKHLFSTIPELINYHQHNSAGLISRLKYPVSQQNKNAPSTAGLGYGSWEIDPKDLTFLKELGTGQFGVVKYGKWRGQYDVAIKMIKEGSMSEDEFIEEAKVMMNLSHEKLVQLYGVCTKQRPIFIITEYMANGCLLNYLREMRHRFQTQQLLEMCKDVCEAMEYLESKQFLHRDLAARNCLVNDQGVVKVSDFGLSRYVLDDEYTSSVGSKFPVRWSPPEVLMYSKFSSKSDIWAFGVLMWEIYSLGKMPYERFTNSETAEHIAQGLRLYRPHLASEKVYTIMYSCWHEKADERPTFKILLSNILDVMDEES

[10] = target: CRBN (Homo sapiens, UniProt Q96SW2); assay: NanoBRET live-cell target engagement of CRBN in HEK293 cells; type: cell-based; details: number in parentheses, 37 °C
Sequence of CRBN (Q96SW2 whole entry): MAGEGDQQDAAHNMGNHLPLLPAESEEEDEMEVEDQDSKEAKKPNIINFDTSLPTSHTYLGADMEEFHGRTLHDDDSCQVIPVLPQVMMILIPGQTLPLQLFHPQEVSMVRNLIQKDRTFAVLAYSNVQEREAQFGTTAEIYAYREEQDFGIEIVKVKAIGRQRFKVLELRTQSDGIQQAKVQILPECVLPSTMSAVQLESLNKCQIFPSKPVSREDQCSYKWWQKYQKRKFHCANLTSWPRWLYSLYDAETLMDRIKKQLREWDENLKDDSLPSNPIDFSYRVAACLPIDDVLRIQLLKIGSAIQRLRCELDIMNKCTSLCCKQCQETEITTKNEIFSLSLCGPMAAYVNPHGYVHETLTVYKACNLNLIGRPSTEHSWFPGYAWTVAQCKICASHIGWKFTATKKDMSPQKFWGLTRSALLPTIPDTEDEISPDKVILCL

[11] = target: T1, BTK; assay: NanoBRET live-cell target engagement of BTK in HEK293 cells; type: cell-based; details: for Hill slope, BTK target engagement: number in parentheses, 37 °C
[12] = target: ternary complex between BTK and CRBN (Homo sapiens, UniProt Q06187+Q96SW2); assay: NanoBRET ternary complex formation assay in HEK293 cells; type: cell-based; details: for Ternary complex formation (in words): live-cell NanoBRET
Sequence of ternary complex between BTK and CRBN (Q06187 whole entry): as the sequence (Q06187 whole entry) above
Sequence of ternary complex between BTK and CRBN (Q96SW2 whole entry): as the sequence (Q96SW2 whole entry) above

[13] = target: T1, BTK; assay: BTK degradation in seven B-cell malignant cell lines; type: cell-based; details: Figure S4
[14] = tested on: caspase-3, PARP, Bcl-2, Mcl-1; assay: Apoptosis pathway proteins by western blot in TMD8 and Mino cells; type: cell-based; details: 48 h

Sequence of GSPT1 (Q96SW2 whole entry partner): as the sequence (Q96SW2 whole entry) above
Sequence of GSPT1 (Q16531 whole entry partner): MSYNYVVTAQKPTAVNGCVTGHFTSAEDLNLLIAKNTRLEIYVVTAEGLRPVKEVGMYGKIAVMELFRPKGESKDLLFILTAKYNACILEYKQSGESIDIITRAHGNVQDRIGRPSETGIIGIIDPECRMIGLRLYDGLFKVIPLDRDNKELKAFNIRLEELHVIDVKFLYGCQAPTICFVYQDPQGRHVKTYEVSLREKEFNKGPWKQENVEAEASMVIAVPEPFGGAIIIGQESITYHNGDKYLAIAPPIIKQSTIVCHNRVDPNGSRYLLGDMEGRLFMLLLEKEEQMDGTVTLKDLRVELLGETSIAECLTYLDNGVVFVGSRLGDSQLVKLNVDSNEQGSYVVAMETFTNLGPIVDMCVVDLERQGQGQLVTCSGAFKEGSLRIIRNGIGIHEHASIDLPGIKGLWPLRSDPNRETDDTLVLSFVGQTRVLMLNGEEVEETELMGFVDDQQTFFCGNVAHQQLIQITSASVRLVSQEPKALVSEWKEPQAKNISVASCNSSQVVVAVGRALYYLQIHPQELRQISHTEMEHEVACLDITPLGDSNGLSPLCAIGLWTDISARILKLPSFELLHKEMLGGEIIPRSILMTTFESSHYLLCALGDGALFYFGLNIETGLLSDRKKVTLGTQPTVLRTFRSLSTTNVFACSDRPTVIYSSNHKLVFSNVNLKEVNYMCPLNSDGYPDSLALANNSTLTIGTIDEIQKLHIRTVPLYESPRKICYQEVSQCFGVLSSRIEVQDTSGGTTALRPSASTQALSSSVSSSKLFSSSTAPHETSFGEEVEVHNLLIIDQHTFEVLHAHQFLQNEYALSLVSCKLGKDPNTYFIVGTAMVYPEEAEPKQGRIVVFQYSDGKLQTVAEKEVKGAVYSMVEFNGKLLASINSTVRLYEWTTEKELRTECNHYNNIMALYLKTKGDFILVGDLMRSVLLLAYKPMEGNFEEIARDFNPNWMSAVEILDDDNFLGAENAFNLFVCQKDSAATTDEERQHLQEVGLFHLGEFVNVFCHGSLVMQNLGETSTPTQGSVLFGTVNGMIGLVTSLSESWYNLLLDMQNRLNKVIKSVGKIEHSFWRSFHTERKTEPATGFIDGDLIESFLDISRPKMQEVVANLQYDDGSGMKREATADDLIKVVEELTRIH
Sequence of GSPT1 (P15170 whole entry): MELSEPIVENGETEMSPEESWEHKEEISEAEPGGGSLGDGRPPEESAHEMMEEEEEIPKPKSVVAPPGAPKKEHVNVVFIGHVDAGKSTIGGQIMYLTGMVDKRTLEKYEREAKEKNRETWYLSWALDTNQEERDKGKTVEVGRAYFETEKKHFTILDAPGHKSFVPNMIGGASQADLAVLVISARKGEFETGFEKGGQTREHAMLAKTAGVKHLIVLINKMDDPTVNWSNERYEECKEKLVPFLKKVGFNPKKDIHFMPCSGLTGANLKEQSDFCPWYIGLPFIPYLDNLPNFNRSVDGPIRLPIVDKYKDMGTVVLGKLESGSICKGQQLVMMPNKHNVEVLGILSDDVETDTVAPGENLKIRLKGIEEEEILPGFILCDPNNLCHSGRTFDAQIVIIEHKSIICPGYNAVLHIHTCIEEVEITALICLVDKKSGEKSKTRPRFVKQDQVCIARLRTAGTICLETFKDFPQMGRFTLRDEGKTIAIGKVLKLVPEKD

Compound: 4-((2-(2-(2-(2-azidoethoxy)ethoxy)ethoxy)ethyl)amino)-2-(2,6-dioxopiperidin-3-yl)isoindoline-1,3-dione [P13I, reference compound]
Effect on levels of GSPT1 [1]: did not affect the levels
Degradation of neo-substrates IKZF1 and IKZF3 [2]: degrade
Effect on abundance of other kinases [3]: significant degradation of some off-targets, specifically, CSK and FRK
IC50 [4]: 10.4 ± 2.4 nM
IC50 [5]: 15 ± 2.8 nM

BTK degradation by parent molecules ([9]; Ramos cells): no BTK degradation was observed
Compound: C[C@H]1CN(C2COC2)CCN1c1ccc(Nc2cc(-c3ccnc(N4CCn5c(cc6c5CC(C)(C)C6)C4=O)c3CO)cn(C)c2=O)nc1 [GDC-0853, fenebrutinib, reference compound]
Induction of apoptosis [6]: a dose-dependent effect was observed
Effect on BCR signaling pathway (p-PLCγ2, p-BTK, p-AKT, p-NF-κB, PLCγ2, AKT, NF-κB) [7]: less prominent
Induction of apoptosis [8]: did not cause apoptosis

Compound: Cc1ncsc1-c1ccc(CNC(=O)[C@@H]2C[C@@H](O)CN2C(=O)[C@@H](NC(=O)COCCOCCCCCCC(=O)N2CCN(c3ccc(Nc4cc(-c5ccnc(N6CCn7c(cc8c7CC(C)(C)C8)C6=O)c5CO)cn(C)c4=O)nc3)[C@@H](C)C2)C(C)(C)C)cc1 [PTD3, (2S,4R)-1-((S)-2-(2-(2-((7-((S)-4-(6-((2’-(7,7-dimethyl-1-oxo-1,3,4,6,7,8-hexahydro-2H-cyclopenta[4,5]pyrrolo[1,2-a]pyrazin-2-yl)-3’-(hydroxymethyl)-1-methyl-6-oxo-1,6-dihydro-[3,4’-bipyridin]-5-yl)amino)pyridin-3-yl)-3-methylpiperazin-1-yl)-7-oxoheptyl)oxy)ethoxy)acetamido)-3,3-dimethylbutanoyl)-4-hydroxy-N-(4-(4-methylthiazol-5-yl)benzyl)pyrrolidine-2-carboxamide]
BTK degradation (VHL-based PROTAC) ([9]; Ramos and JeKo-1 cell lines, 17 h, concentrations lower than 3000 nM, Figure S1): no degradation was observed

Compound: C[C@H]1CN(C(=O)CNc2cccc3c2C(=O)N(C2CCC(=O)NC2=O)C3=O)CCN1c1ccc(Nc2cc(-c3ccnc(N4CCn5c(cc6c5CC(C)(C)C6)C4=O)c3CO)cn(C)c2=O)nc1 (stereo partly drawn) [PTD10, 4-((2-((S)-4-(6-((2’-(7,7-dimethyl-1-oxo-1,3,4,6,7,8-hexahydro-2H-cyclopenta[4,5]pyrrolo[1,2-a]pyrazin-2-yl)-3’-(hydroxymethyl)-1-methyl-6-oxo-1,6-dihydro-[3,4’-bipyridin]-5-yl)amino)pyridin-3-yl)-3-methylpiperazin-1-yl)-2-oxoethyl)amino)-2-(2,6-dioxopiperidin-3-yl)isoindoline-1,3-dione]
Concentration at which robust apoptosis was detected ([6]; TMD8 and Mino cell lines): 333 nM
Induction of apoptosis [6]: induce apoptosis in a dose-dependent manner
Effect on levels of GSPT1 [1]: did not affect the levels
Hill slope, CRBN target engagement [10]: 1.0
Degradation of neo-substrates IKZF1 and IKZF3 [2]: degrade
Effect on abundance of other kinases [3]: did not affect the abundance of other kinases
Effect on BCR signaling pathway (p-PLCγ2, p-BTK, p-AKT, p-NF-κB, PLCγ2, AKT, NF-κB) [7]: Robust downregulation was observed
Hill slope, BTK target engagement [11]: 1.9
Ternary complex formation (in words) [12]: prominent ternary complex formation
Ternary Complex Formation (maximum) ([12]; maximum ternary complex formation setting the BRET ratio for PTD10 at 100%): 100%
BTK degradation in B-cell malignant cell lines [13]: potent degradation effects
Induction of apoptosis [8]: induce apoptosis in a dose-dependent manner
Concentration at which Hook effect was observed ([9]; BTK degradation, Figure 3): > 333 nM
BTK degradation on co-treatment with competitor ([9]; Ramos cells, 111 nM PTD10 with 1 μM GDC-0853 or 20 μM iberdomide (CC-220), 17 h): BTK degradation was completely blocked
BTK degradation after pre-treatment with bortezomib or MLN-4924 ([9]; Ramos cells, pre-treated 2 h, then 111 nM PTD10 for 4 h): inhibition of BTK degradation
Levels of Bcl-2 and Mcl-1 [14]: significant down-regulation
Levels of cleaved-PARP and cleaved caspase-3 [14]: increase

Compound: C[C@H]1CN(C(=O)CNc2cccc3c2CN(C2CCC(=O)NC2=O)C3=O)CCN1c1ccc(Nc2cc(-c3ccnc(N4CCn5c(cc6c5CC(C)(C)C6)C4=O)c3CO)cn(C)c2=O)nc1 (stereo partly drawn) [PTD12, 3-(4-((2-((S)-4-(6-((2’-(7,7-dimethyl-1-oxo-1,3,4,6,7,8-hexahydro-2H-cyclopenta[4,5]pyrrolo[1,2-a]pyrazin-2-yl)-3’-(hydroxymethyl)-1-methyl-6-oxo-1,6-dihydro-[3,4’-bipyridin]-5-yl)amino)pyridin-3-yl)-3-methylpiperazin-1-yl)-2-oxoethyl)amino)-1-oxoisoindolin-2-yl)piperidine-2,6-dione]
Decrease in degradation activity compared to PTD10 ([9]; DC50 ratio): ~ 8 fold

Compound: C[C@H]1CN(C(=O)c2cccc3c2C(=O)N(C2CCC(=O)NC2=O)C3=O)CCN1c1ccc(Nc2cc(-c3ccnc(N4CCn5c(cc6c5CC(C)(C)C6)C4=O)c3CO)cn(C)c2=O)nc1 (stereo partly drawn) [PTD13, 4-((S)-4-(6-((2’-(7,7-dimethyl-1-oxo-1,3,4,6,7,8-hexahydro-2H-cyclopenta[4,5]pyrrolo[1,2-a]pyrazin-2-yl)-3’-(hydroxymethyl)-1-methyl-6-oxo-1,6-dihydro-[3,4’-bipyridin]-5-yl)amino)pyridin-3-yl)-3-methylpiperazine-1-carbonyl)-2-(2,6-dioxopiperidin-3-yl)isoindoline-1,3-dione]
Hill slope, CRBN target engagement [10]: 1.0
Hill slope, BTK target engagement [11]: 1.4
Ternary complex formation (in words) [12]: no ternary complex was observed

Compound: C[C@H]1CN(C(=O)COc2cccc3c2C(=O)N(C2CCC(=O)NC2=O)C3=O)CCN1c1ccc(Nc2cc(-c3ccnc(N4CCn5c(cc6c5CC(C)(C)C6)C4=O)c3CO)cn(C)c2=O)nc1 (stereo partly drawn) [PTD14, 4-(2-((S)-4-(6-((2’-(7,7-dimethyl-1-oxo-1,3,4,6,7,8-hexahydro-2H-cyclopenta[4,5]pyrrolo[1,2-a]pyrazin-2-yl)-3’-(hydroxymethyl)-1-methyl-6-oxo-1,6-dihydro-[3,4’-bipyridin]-5-yl)amino)pyridin-3-yl)-3-methylpiperazin-1-yl)-2-oxoethoxy)-2-(2,6-dioxopiperidin-3-yl)isoindoline-1,3-dione]
Effect on levels of GSPT1 [1]: did not affect the levels
Degradation of neo-substrates IKZF1 and IKZF3 [2]: no degradation
Effect on abundance of other kinases [3]: did not affect the abundance of other kinases

Compound: C[C@H]1CN(C(=O)CCCCCCCCCCCNc2cccc3c2C(=O)N(C2CCC(=O)NC2=O)C3=O)CCN1c1ccc(Nc2cc(-c3ccnc(N4CCn5c(cc6c5CC(C)(C)C6)C4=O)c3CO)cn(C)c2=O)nc1 (stereo partly drawn) [PTD15, 4-((12-((S)-4-(6-((2’-(7,7-dimethyl-1-oxo-1,3,4,6,7,8-hexahydro-2H-cyclopenta[4,5]pyrrolo[1,2-a]pyrazin-2-yl)-3’-(hydroxymethyl)-1-methyl-6-oxo-1,6-dihydro-[3,4’-bipyridin]-5-yl)amino)pyridin-3-yl)-3-methylpiperazin-1-yl)-12-oxododecyl)amino)-2-(2,6-dioxopiperidin-3-yl)isoindoline-1,3-dione]
Hill slope, CRBN target engagement [10]: 0.5
Fold less potent than GDC-0853 at engaging BTK ([11]; NanoBRET): 250 fold
Hill slope, BTK target engagement [11]: 1.3

BTK degradation by parent molecules ([9]; Ramos cells): no BTK degradation was observed
Compound: Nc1cccc2c1C(=O)N(C1CCC(=O)NC1=O)C2=O (stereo not shown) [Pomalidomide, pomalidomide, reference compound]
Induction of apoptosis [6]: little effect
Induction of apoptosis [8]: induced apoptosis in Mino cells in a dose-dependent manner
